Tested on: yeast genes (level of expressed mRNA)
Test: DNA chip analysis of expressed mRNA of yeast genes after 2 h culture with a toxic chemical substance
Type: cell-based, Saccharomyces cerevisiae S288C
Experimental: Yeast (Saccharomyces cerevtisiae S288C (α SUC2mal mel gap2 CUP1)) were cultured at 25° C. on YPD medium (yeast extract 1%, polypepton 2%, glucose 2%). One of toxic chemical substances was added to the cell at logarithmic growth phase, and the cell was further cultured for two hours. Cell was cultured without any chemical substance in the same condition, and was used as control. Concentrations of the chemical substances were defined to inhibit the growth of the yeast but not lead to death.
After the completion of cultivation, the culture was centrifuged to collect the cells. To the cells, sodium acetate buffer (50 mM sodium acetate, 10 mM EDTA, 1% SDS) was added, and the mixture was shaken at 65° C. for five minutes, followed by returning to room temperature, and obtaining the supernatant, which procedure was repeated two times. To the supernatant, ½ amount of a solution of phenol/chloroform was added, and the mixture was centrifuged to give a supernatant, which was added with an equal amount of chloroform, and the mixture was centrifuged to give a supernatant. To the supernatant, an equal amount of isopropanol containing 0.3 M sodium acetate was added, and the mixture was allowed to stand at room temperature for 30 minutes, after which the mixture was centrifuged to give a sediment of the whole RNAs. Seventy % ethanol was added to the sediment, and the mixture was again centrifuged to give a sediment, which was then dried and dissolved in water. mRNA was isolated from the whole RNAs as followings. In view of the fact that a poly A chain is attached to the 3′ terminus of mRNA, a polynucleotide having a poly T structure which was immobilized on the surface of latex beads was used to trap the mRNA, and then the mRNA was washed and eluted with spine column (Oligotex-dT30<Super>mRNA Purification Kit, Takara). Reverse transcription of the mRNA was conducted with a reverse transcriptase (Super Script II Reverse Transcriptase; catalogue No. 18064-014, GibcoBRL) using fluorescence-labeled nucleotides to give cDNAs that were introduced with Cy3-dUTP or Cy5-dUTP during the reverse transcription.
The labeled cDNAs were dissolved in TE buffer (10 mM Tris-HCl/1 mM EDTA, pH8.0), and the solution was dropped on the DNA chip containing the whole genes of yeast (DNA Chip Research Inc. Japan) so that the cDNAs were hybridized on the DNA chip at 65° C. for over 12 hours. The fluoresces intensity of the DNA chip was read with a scanner, and the ratio relative to the fluorescence intensity resulting from the absence of chemical substance was estimated as the following, which is shown in Tables 1 to 9: [formula]
In the Tables, “Intensity” indicated in the rightmost column is a value of the level of expressed mRNA of each gene in control cells as divided by the average level of the expressions of the whole genes.

HgCl2 [(3)]
The level of expressed mRNA in the presence of chemical substance/ (yeast gene YKL086W, ratio to control without chemical): 2.4 | The level of expressed mRNA in the presence of chemical substance/The level of expressed mRNA in the absence of chemical substance (yeast gene YKL096W): 8.1 | The level of expressed mRNA in the presence of chemical substance/ (yeast gene YKL151C, ratio to control without chemical substance, 2 h culture): 1.7 | The level of expressed mRNA in the presence of chemical substance/ (yeast gene YKL153W, ratio to control without chemical substance, 2 h culture): 2.0 | The level of expressed mRNA in the presence of chemical substance/The level of expressed mRNA in the absence of chemical substance (yeast gene YKL165C): 1.1 | The level of expressed mRNA in the presence of chemical substance/The level of expressed mRNA in the absence of chemical substance (yeast gene YKL193C): 1.1 | The level of expressed mRNA in the presence of chemical substance/ (yeast gene YKL195W, ratio to control without chemical substance, 2 h culture): 0.4 | The level of expressed mRNA in the presence of chemical substance/in the absence of chemical substance (yeast gene YKR009C): 1.5 | The level of expressed mRNA in the presence of chemical substance/ (yeast gene YKR091W, ratio to control without chemical): 0.9 | The level of expressed mRNA in the presence of chemical substance/ (yeast gene YLR054C, ratio to control without chemical substance, 2 h culture): 0.4 | The level of expressed mRNA in the presence of chemical substance/The level of expressed mRNA in the absence of chemical substance (yeast gene YLR120C): 2.4 | The level of expressed mRNA in the presence of chemical substance/The level of expressed mRNA in the absence of chemical substance (yeast gene YLR136C): 0.6 | The level of expressed mRNA in the presence of chemical substance/ (yeast gene YLR149C, ratio to control without chemical substance, 2 h culture): 3.4 | The level of expressed mRNA in the presence of chemical substance/ (yeast gene YLR152C, ratio to control without chemical substance, 2 h culture): 1.1 | The level of expressed mRNA in the presence of chemical substance/The level of expressed mRNA in the absence of chemical substance (yeast gene YLR178C): 8.8 | The level of expressed mRNA in the presence of chemical substance/ (yeast gene YLR194C, ratio to control without chemical): 1.3 | The level of expressed mRNA in the presence of chemical substance/The level of expressed mRNA in the absence of chemical substance (yeast gene YLR250W): 1.0 | The level of expressed mRNA in the presence of chemical substance/ (yeast gene YLR324W, ratio to control without chemical substance, 2 h culture): 0.9 | The level of expressed mRNA in the presence of chemical substance/The level of expressed mRNA in the absence of chemical substance (yeast gene YLR327C): 14.4 | The level of expressed mRNA in the presence of chemical substance/ (yeast gene YLR350W, ratio to control without chemical substance, 2 h culture): 3.2 | The level of expressed mRNA in the presence of chemical substance/in the absence of chemical substance (yeast gene YLR351C): 1.3 | The level of expressed mRNA in the presence of chemical substance/The level of expressed mRNA in the absence of chemical substance (yeast gene YLR356W): 4.9 | The level of expressed mRNA in the presence of chemical substance/The level of expressed mRNA in the absence of chemical substance (yeast gene YLR362W): 1.0 | The level of expressed mRNA in the presence of chemical substance/in the absence of chemical substance (yeast gene YLR375W): 0.9 | The level of expressed mRNA in the presence of chemical substance/ (yeast gene YLR387C, ratio to control without chemical substance, 2 h culture): 0.8 | The level of expressed mRNA in the presence of chemical substance/The level of expressed mRNA in the absence of chemical substance (yeast gene YLR391W): 2.9 | The level of expressed mRNA in the presence of chemical substance/The level of expressed mRNA in the absence of chemical substance (yeast gene YLR429W): 0.6 | The level of expressed mRNA in the presence of chemical substance/ (yeast gene YLR460C, ratio to control without chemical substance, 2 h culture): 2.0 | The level of expressed mRNA in the presence of chemical substance/ (yeast gene YML117W, ratio to control without chemical substance, 2 h culture): 0.9 | The level of expressed mRNA in the presence of chemical substance/The level of expressed mRNA in the absence of chemical substance (yeast gene YMR004W): 1.3 | The level of expressed mRNA in the presence of chemical substance/ (yeast gene YMR009W, ratio to control without chemical substance, 2 h culture): 0.5 | The level of expressed mRNA in the presence of chemical substance/ (yeast gene YMR067C, ratio to control without chemical substance, 2 h culture): 1.1 | The level of expressed mRNA in the presence of chemical substance/ (yeast gene YMR090W, ratio to control without chemical substance, 2 h culture): 2.3 | The level of expressed mRNA in the presence of chemical substance/The level of expressed mRNA in the absence of chemical substance (yeast gene YMR094W): 1.3 | The level of expressed mRNA in the presence of chemical substance/ (yeast gene YMR095C, ratio to control without chemical): 1.6 | The level of expressed mRNA in the presence of chemical substance/ (yeast gene YMR097C, ratio to control without chemical substance, 2 h culture): 0.7 | The level of expressed mRNA in the presence of chemical substance/ (yeast gene YMR102C, ratio to control without chemical substance, 2 h culture): 1.1 | The level of expressed mRNA in the presence of chemical substance/The level of expressed mRNA in the absence of chemical substance (yeast gene YMR104C): 2.2 | The level of expressed mRNA in the presence of chemical substance/ (yeast gene YMR107W, ratio to control without chemical substance, 2 h culture): 1.7 | The level of expressed mRNA in the presence of chemical substance/ (yeast gene YMR180C, ratio to control without chemical substance, 2 h culture): 1.0 | The level of expressed mRNA in the presence of chemical substance/ (yeast gene YMR184W, ratio to control without chemical substance, 2 h culture): 1.0 | The level of expressed mRNA in the presence of chemical substance/ (yeast gene YMR191W, ratio to control without chemical substance, 2 h culture): 1.9 | The level of expressed mRNA in the presence of chemical substance/The level of expressed mRNA in the absence of chemical substance (yeast gene YMR219W): 1.0 | The level of expressed mRNA in the presence of chemical substance/The level of expressed mRNA in the absence of chemical substance (yeast gene YMR226C): 1.4 | The level of expressed mRNA in the presence of chemical substance/in the absence of chemical substance (yeast gene YMR267W): 0.7 | The level of expressed mRNA in the presence of chemical substance/The level of expressed mRNA in the absence of chemical substance (yeast gene YMR275C): 1.2 | The level of expressed mRNA in the presence of chemical substance/The level of expressed mRNA in the absence of chemical substance (yeast gene YMR276W): 1.5 | The level of expressed mRNA in the presence of chemical substance/in the absence of chemical substance (yeast gene YMR278W): 1.4 | The level of expressed mRNA in the presence of chemical substance/in the absence of chemical substance (yeast gene YMR293C): 1.6 | The level of expressed mRNA in the presence of chemical substance/ (yeast gene YMR295C, ratio to control without chemical substance, 2 h culture): 1.2 | The level of expressed mRNA in the presence of chemical substance/The level of expressed mRNA in the absence of chemical substance (yeast gene YMR314W): 0.9 | The level of expressed mRNA in the presence of chemical substance/ (yeast gene YMR316W, ratio to control without chemical substance, 2 h culture): 1.1 | The level of expressed mRNA in the presence of chemical substance/The level of expressed mRNA in the absence of chemical substance (yeast gene YNL006W): 1.3 | The level of expressed mRNA in the presence of chemical substance/The level of expressed mRNA in the absence of chemical substance (yeast gene YNL007C): 5.1 | The level of expressed mRNA in the presence of chemical substance/ (yeast gene YNL044W, ratio to control without chemical substance, 2 h culture): 2.3

— patent publication US20050112573A1, “Method of detecting toxic substance” (priority 2001, published 2005)
